Results published in patent US9018371B2, “Adenosine derivatives, method for the synthesis thereof, and the pharmaceutical compositions for the prevention and treatment of the inflammatory diseases containing the same as an active ingredient” (FM Therapeutics Co., Ltd., priority 2007, dated 2015).

What was measured:
[1] = system: TPA-induced inflammation of the mouse ear; assay: Anti-inflammatory activity, TPA-induced mouse ear inflammation; format: in vivo, ICR mice; conditions: TPA-treated ear; for anti-inflammatory activity relative to Examples 2 to 4, on the basis of inhibition percentage: 0.5% in acetone, ICR mice (FIG. 3); for percentage of inflammation inhibition: ICR mice, 24 hrs after TPA
Description: The adenosine derivatives of the present invention were examined for anti-inflammatory activity in the following animal test. Seven-week-old male ICR mice were treated with TPA (12-O-tetradecanoylphorbol 13-acetate, 20 μl) in the right ear. […] Hydrocortisone was used at the same concentration as a control.
6 hrs after treatment with TPA, the mice were secondarily treated with the adenosine derivatives of the present invention. 24 hrs after TPA treatment, test animals were euthanized using a cervical dislocation method. Samples were obtained from the right ear using a 6 mm diameter punch. The activity was observed by measuring the ear sample using a microbalance. Percentages of inhibition were calculated using the following Equation 1. The compositions and amounts used in these experiments are summarized in Tables 2 to 5 and the anti-inflammatory activities thereof are shown in FIGS. 2 to 5.

[2] = biological target: human A3 adenosine receptor (hA3 AR) (Homo sapiens (Human), UniProt P0DMS8); assay: Binding affinity for human A3 adenosine receptor ([125I]AB-MECA, CHO cells); conditions: for Ki: nM ± SEM, [125I]AB-MECA, CHO cells
human A3 adenosine receptor (hA3 AR), sequence (P0DMS8 whole entry): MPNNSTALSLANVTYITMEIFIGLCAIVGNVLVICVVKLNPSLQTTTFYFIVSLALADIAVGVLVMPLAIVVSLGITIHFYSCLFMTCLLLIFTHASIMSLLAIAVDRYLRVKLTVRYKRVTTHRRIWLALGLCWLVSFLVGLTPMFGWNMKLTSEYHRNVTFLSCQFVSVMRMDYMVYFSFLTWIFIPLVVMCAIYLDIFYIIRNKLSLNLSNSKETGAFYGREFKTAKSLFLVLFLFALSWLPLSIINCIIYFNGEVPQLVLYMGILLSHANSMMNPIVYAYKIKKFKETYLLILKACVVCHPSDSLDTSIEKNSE
Description: (§1) The adenosine derivatives of the present invention were assayed for binding affinity for human A1, AZA and A3 adenosine receptors as follows.
(§2) CHO cells (ATCC No. CCL-61), in which A1 and A3 adenosine receptors were expressed, were cultured in F-12 media (Gibco, U.S.A.) supplemented with 10% fetal bovine serum (FBS) and penicillin/streptomycin (100 units/ml and 100 μg/ml), at 37° C. in a 5% CO2 atmosphere. […] Incubation for 1 hr in a 37° C. incubator was followed by rapid filtration in a vacuum using a cell collector (TOMTEC, U.S.A.). Subsequently, the test tubes were washed three times with 3 ml of the buffer before radioactivity was measured using a γ-counter. […] Ki for binding affinity was determined by subtracting the non-specific binding value from the total binding value. On the basis of the specific binding values, the samples were analyzed for binding affinity to various adenosine receptors.

[3] = Toxicity assay in animals (abdominal administration, 24 hrs observation); conditions: 20 mg/kg, 10 mg/kg and 1 mg/kg abdominally, observation for 24 hrs
Description: The compounds synthesized in the examples of the present invention were assayed for cytotoxicity in animals.

[4] = biological target: human A3 adenosine receptor (Homo sapiens (Human), UniProt P0DMS8); assay: Antagonism of Cl-IB-MECA and cAMP inhibition in CHO cells expressing human A3 adenosine receptor; format: cell-based; conditions: various concentrations
human A3 adenosine receptor, sequence (P0DMS8 whole entry): as above

[5] = biological target: human A2B adenosine receptor (Homo sapiens (Human), UniProt P29275); assay: Agonist or antagonist activity on human A2B adenosine receptor
human A2B adenosine receptor, sequence (P29275 whole entry): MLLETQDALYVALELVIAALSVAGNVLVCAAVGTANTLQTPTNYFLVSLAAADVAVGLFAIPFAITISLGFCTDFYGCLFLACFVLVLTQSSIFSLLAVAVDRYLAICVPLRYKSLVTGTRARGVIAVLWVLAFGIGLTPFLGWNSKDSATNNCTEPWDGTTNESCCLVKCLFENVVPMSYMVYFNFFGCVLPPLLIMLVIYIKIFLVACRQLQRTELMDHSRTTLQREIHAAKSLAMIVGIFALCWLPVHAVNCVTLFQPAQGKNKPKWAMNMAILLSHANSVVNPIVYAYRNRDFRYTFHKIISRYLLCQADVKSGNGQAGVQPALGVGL

[6] = biological target: human A2A adenosine receptor (hA2A) (Homo sapiens (Human), UniProt P29274); assay: Binding affinity for human A2A adenosine receptor ([3H]CGS-21680, HEK 293 cell); conditions: nM ± SEM
human A2A adenosine receptor (hA2A), sequence (P29274 whole entry): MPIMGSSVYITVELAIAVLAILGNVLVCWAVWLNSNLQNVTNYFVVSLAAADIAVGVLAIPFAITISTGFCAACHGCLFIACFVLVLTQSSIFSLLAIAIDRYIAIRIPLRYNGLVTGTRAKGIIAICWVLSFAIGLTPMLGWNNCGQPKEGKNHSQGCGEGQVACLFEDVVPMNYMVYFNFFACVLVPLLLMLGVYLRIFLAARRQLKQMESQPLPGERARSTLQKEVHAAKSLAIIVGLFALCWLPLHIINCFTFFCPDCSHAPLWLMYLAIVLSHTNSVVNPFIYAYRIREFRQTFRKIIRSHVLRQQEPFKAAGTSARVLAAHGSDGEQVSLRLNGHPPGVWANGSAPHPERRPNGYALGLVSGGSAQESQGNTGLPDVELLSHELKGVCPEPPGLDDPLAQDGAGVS
Description: as §1
Each of the compounds synthesized in the examples was measured for IC50 at least 6 different concentrations, and the measurements were analyzed using PLAT? software to determine Ki values.

[7] = biological target: human A1 adenosine receptor (hA1) (Homo sapiens (Human), UniProt P30542); assay: Binding affinity for human A1 adenosine receptor ([3H]CCPA, CHO cells); conditions: nM ± SEM
human A1 adenosine receptor (hA1), sequence (P30542 whole entry): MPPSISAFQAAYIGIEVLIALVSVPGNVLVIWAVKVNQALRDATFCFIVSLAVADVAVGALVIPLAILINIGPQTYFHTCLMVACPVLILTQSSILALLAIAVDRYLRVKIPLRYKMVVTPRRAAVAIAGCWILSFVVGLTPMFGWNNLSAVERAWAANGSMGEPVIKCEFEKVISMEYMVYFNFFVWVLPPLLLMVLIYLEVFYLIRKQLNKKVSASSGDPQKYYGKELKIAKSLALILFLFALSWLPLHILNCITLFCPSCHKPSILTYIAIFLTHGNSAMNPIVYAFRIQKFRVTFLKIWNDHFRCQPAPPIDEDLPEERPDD
Description: as §1, §2

[8] = biological target: rat A3 adenosine receptor (Rattus norvegicus (Rat), UniProt P28647); assay: Binding affinity for rat A3 adenosine receptor expressed in CHO cells
rat A3 adenosine receptor, sequence (P28647 whole entry): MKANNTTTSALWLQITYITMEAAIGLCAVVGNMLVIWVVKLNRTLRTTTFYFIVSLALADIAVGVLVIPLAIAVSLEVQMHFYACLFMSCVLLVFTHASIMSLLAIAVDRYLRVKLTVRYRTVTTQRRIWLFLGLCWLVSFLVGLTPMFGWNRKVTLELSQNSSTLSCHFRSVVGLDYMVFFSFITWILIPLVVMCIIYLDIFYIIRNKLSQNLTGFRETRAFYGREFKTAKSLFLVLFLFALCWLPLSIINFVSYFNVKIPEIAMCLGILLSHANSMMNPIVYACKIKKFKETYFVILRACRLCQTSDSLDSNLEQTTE

[9] = 0.5% in distilled water:acetone (1:4)

SMILES: OC1CS[C@@H](n2cnc3c(NCc4cccc(F)c4)nc(Cl)nc32)C1O (stereo in doubt) [Example 1, (2R,3R,4S)-2-(2-Chloro-6-(3-fluorobenzylamino)-9H-purin-9-yl)tetrahydrothiophen-3,4-diol]
- melting point: 183.2 to 183.5 °C
- anti-inflammatory activity relative to Examples 2 to 4, on the basis of inhibition percentage [1]: four or more times that of the compounds of Examples 2 to 4
- Ki [2]: 7.4 ± 1.3 nM

SMILES: OC1CS[C@@H](n2cnc3c(NCc4cccc(Cl)c4)nc(Cl)nc32)C1O (stereo in doubt) [Example 2, (2R,3R,4S)-2-(2-Chloro-6-(3-chlorobenzylamino)-9H-purin-9-yl)tetrahydrothiophen-3,4-diol]
- mortality [3]: None of the members of the three groups died
- weight gain or feed intake versus control group [3]: No difference in weight gain or feed intake

SMILES: OC1CS[C@@H](n2cnc3c(NCc4cccc(Br)c4)nc(Cl)nc32)C1O (stereo in doubt) [Example 3, (2R,3R,4S)-2-(2-Chloro-6-(3-bromobenzylamino)-9H-purin-9-yl)tetrahydrothiophen-3,4-diol]
- melting point: 184 to 185 °C
- Ki [2]: 8.99 ± 5.17 nM

SMILES: OC1CS[C@@H](n2cnc3c(NCc4cccc(I)c4)nc(Cl)nc32)C1O (stereo in doubt) [Example 4, (2R,3R,4S)-2-(2-Chloro-6-(3-iodobenzylamino)-9H-purin-9-yl)tetrahydrothiophen-3,4-diol]
- inhibition of the agonist effect of Cl-IB-MECA (in words) [4]: inhibited in a dose-dependent manner
- agonist or antagonist on human A2B adenosine receptor (in words) [5]: not observed as an agonist or antagonist

SMILES: OC1CS[C@@H](n2cnc3c(NCc4ccccc4Cl)nc(Cl)nc32)C1O (stereo in doubt) [Example 5, (2R,3R,4S)-2-(2-Chloro-6-(2-chlorobenzylamino)-9H-purin-9-yl)tetrahydrothiophen-3,4-diol]
- melting point: 198.7 to 199.7 °C
- percentage of inflammation inhibition [1, 9]: 17%
- Ki [6]: 1600 ± 135 nM
- Ki [2]: 25.8 ± 6.3 nM

SMILES: COc1ccc(Cl)cc1CNc1nc(Cl)nc2c1ncn2[C@@H]1SCC(O)C1O (stereo in doubt) [Example 6, (2R,3R,4S)-2-(2-Chloro-6-(5-chloro-2-methoxybenzylamino)-9H-purin-9-yl)tetrahydrothiophen-3,4-diol]
- melting point: 188.8 to 189.8 °C
- anti-inflammatory activity relative to Examples 2 to 4, on the basis of inhibition percentage [1]: four or more times that of the compounds of Examples 2 to 4
- Ki [6]: 4020 ± 1750 nM
- Ki [2]: 12.7 ± 3.7 nM

SMILES: COc1ccccc1CNc1nc(Cl)nc2c1ncn2[C@@H]1SCC(O)C1O (stereo in doubt) [Example 7, (2R,3R,4S)-2-(2-chloro-6-(2-methoxybenzylamino)-9H-purin-9-yl)tetrahydrothiophen-3,4-diol]
- melting point: 188 °C
- percentage of inflammation inhibition [1, 9]: 34%

SMILES: OC1CS[C@@H](n2cnc3c(NCc4cccc5ccccc45)nc(Cl)nc32)C1O (stereo in doubt) [Example 8, (2R,3R,4S)-2-(2-Chloro-6-(naphthalen-1-ylmethylamino)-9H-purin-9-yl)tetrahydrothiophen-3,4-diol]
- melting point: 226.3 °C (dec.)
- percentage of inflammation inhibition [1, 9]: 53%
- Ki [2]: 24.8 ± 8.1 nM

SMILES: O=C(O)c1cccc(CNc2nc(Cl)nc3c2ncn3[C@@H]2SCC(O)C2O)c1 (stereo in doubt) [Example 9, 3-((2-chloro-9-((2R,3R,4S)-3,4-dihydroxytetrahydrothiophen-2-yl)-9H-purine-6-ylamino)methyl)benzoic acid]
- melting point: 254 to 256.99 °C

SMILES: OC1CS[C@@H](n2cnc3c(NCc4cccc(F)c4)ncnc32)C1O (stereo in doubt) [Example 11, (2R,3R,4S)-2-(6-(3-fluorobenzylamino)-9H-purin-9-yl)tetrahydrothiophen-3,4-diol]
- Ki [6]: 1260 ± 330 nM
- Ki [2]: 7.3 ± 0.6 nM
- Ki [7]: 1430 ± 420 nM

SMILES: OC1CS[C@@H](n2cnc3c(NCc4cccc(Cl)c4)ncnc32)C1O (stereo in doubt) [Example 12, (2R,3R,4S)-2-(6-(3-Chlorobenzylamino)-9H-purin-9-yl)tetrahydrothiophen-3,4-diol]
- Ki [6]: 440 ± 110 nM
- Ki [2]: 1.5 ± 0.4 nM
- Ki [7]: 860 ± 210 nM

SMILES: OC1CS[C@@H](n2cnc3c(NCc4cccc(Br)c4)ncnc32)C1O (stereo in doubt) [Example 13, (2R,3R,4S)-2-(6-(3-bromobenzylamino)-9H-purin-9-yl)tetrahydrothiophen-3,4-diol]
- melting point: 183 to 184 °C
- Ki [6]: 420 ± 32 nM
- Ki [2]: 6.8 ± 3.4 nM
- Ki [7]: 790 ± 190 nM

SMILES: OC1CS[C@@H](n2cnc3c(NCc4cccc(I)c4)ncnc32)C1O (stereo in doubt) [Example 14, (2R,3R,4S)-2-(6-(3-Iodobenzylamino)-9H-purin-9-yl)tetrahydrothiophen-3,4-diol]
- melting point: 198.8 to 199.8 °C

SMILES: OC1CO[C@@H](n2cnc3c(NCc4cccc(Br)c4)nc(Cl)nc32)C1O (stereo in doubt) [Example 15, (2R,3R,4R)-2-(6-(3-Bromobenzylamino)-2-chloro-9H-purin-9-yl)tetrahydrofuran-3,4-diol]
- melting point: 181.5 to 181.7 °C
- percentage of inflammation inhibition ([1]; 0.5% in DMSO:acetone (1:9)): 59%
- binding affinity for hA3 AR (in words) [2]: high binding affinity and selectivity
- Ki [2]: 13 ± 6.9 nM

SMILES: O[C@@H]1[C@H](O)CS[C@H]1n1cnc2c(NCc3cccc(I)c3)nc(Cl)nc21 [Example 4, (2R,3R,4S)-2-(2-Chloro-6-(3-iodobenzylamino)-9H-purin-9-yl)tetrahydrothiophen-3,4-diol]
- Ki [8]: 3.89 ± 1.15 nM

SMILES: CNc1nc(Cl)nc2c1ncn2[C@@H]1SC[C@H](O)[C@@H]1O [Example 10, 2-(2-Chloro-6-methylamino-purin-9-yl)(2R,3S,4R)-tetrahydrothiophen-3,4-diol]
- Ki [2]: 3.69 ± 0.25 nM

SMILES: OC1CO[C@@H](n2cnc3c(NCc4cccc(I)c4)nc(Cl)nc32)[C@H]1O (stereo partly drawn) [Example 16, (2R,3R,4R)-2-(6-(3-iodobenzylamino)-2-chloro-9H-purin-9-yl)tetrahydrofuro-3,4-diol]
- melting point: 195.5 to 195.8 °C
- percentage of inflammation inhibition ([1]; 0.5% in DMSO:acetone (1:9)): 79%
- binding affinity for hA3 AR (in words) [2]: high binding affinity and selectivity
- Ki [2]: 42.9 ± 8.9 nM
